{"source": "paper PMC7827406", "about": "“Structure–Activity Relationship (SAR) Study of Spautin-1 to Entail the Discovery of Novel NEK4 Inhibitors” (International Journal of Molecular Sciences, 2021)", "test_in_all_cases": "biochemical", "set-up_in_all_cases": "Eurofins KinaseProfiler full panel at Km ATP, residual kinase activity (%) relative to DMSO", "key": {"[1]": {"target": "CDK4/cyclinD3(h) (Homo sapiens, UniProt P11802)", "sequence (P11802 whole entry)": "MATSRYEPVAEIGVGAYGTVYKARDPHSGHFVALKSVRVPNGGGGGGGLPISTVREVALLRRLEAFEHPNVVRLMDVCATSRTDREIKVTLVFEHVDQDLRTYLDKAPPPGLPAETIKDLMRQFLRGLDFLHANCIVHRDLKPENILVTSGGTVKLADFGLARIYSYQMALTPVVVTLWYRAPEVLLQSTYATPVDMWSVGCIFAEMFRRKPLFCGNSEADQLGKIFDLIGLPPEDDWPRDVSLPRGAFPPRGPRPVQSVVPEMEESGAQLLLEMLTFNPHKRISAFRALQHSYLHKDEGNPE", "sequence (P30281 whole entry partner)": "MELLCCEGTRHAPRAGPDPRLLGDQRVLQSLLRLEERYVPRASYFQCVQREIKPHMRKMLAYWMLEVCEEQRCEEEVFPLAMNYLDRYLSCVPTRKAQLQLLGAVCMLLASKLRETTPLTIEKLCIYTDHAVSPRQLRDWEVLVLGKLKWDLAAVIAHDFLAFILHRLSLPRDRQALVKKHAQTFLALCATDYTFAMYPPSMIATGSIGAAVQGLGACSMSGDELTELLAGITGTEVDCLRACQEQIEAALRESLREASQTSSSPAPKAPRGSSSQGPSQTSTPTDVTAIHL", "how_it_was_run": "(§1)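 Two 10 µM single-concentration screens were run: a competition-binding screen, in which DNA-tagged kinase bound to immobilized ligands was quantified by qPCR, and a radiometric activity panel at Km ATP. Each is expressed as residual kinase activity (%).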"}, "[2]": {"target": "T1, GRK1(h) (Homo sapiens, UniProt Q15835)", "T1 sequence (Q15835 1-563)": "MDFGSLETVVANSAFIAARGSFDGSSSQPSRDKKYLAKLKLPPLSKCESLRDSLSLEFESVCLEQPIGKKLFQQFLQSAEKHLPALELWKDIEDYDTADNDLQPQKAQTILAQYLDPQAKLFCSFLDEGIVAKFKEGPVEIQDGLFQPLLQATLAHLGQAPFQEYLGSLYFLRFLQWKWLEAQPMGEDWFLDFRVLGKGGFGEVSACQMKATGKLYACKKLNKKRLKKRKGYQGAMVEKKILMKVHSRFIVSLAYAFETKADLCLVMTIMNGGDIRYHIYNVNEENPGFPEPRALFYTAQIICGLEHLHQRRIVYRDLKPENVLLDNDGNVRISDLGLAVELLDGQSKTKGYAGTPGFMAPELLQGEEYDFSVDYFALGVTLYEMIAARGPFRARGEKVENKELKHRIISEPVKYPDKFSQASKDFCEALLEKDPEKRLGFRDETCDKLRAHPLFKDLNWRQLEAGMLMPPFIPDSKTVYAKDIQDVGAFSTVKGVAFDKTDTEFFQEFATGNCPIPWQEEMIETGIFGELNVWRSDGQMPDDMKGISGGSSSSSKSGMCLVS", "how_it_was_run": "as §1"}, "[3]": {"target": "T2, NUAK2(h) (Homo sapiens, UniProt Q9H093)", "T2 sequence (Q9H093 1-628)": "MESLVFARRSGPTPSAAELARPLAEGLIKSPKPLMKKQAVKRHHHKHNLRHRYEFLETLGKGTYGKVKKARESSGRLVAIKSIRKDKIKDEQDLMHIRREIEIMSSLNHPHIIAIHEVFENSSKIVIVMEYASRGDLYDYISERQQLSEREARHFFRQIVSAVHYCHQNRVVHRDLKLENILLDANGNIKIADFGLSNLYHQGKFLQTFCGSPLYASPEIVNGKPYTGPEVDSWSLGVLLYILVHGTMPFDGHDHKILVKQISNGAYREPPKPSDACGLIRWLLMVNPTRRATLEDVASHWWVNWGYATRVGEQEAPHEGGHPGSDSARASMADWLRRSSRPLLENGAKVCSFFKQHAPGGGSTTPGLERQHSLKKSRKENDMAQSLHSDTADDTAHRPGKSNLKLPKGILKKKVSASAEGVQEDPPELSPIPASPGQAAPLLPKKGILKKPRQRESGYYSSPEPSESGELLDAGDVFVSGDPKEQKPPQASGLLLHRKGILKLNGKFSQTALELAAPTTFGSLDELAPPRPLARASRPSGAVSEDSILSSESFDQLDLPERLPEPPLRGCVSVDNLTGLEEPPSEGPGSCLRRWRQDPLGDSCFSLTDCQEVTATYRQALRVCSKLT", "how_it_was_run": "as §1"}, "[4]": {"target": "EGFR(L858R)(h) (Homo sapiens, UniProt P00533, L858R)", "sequence (P00533 whole entry L858R)": "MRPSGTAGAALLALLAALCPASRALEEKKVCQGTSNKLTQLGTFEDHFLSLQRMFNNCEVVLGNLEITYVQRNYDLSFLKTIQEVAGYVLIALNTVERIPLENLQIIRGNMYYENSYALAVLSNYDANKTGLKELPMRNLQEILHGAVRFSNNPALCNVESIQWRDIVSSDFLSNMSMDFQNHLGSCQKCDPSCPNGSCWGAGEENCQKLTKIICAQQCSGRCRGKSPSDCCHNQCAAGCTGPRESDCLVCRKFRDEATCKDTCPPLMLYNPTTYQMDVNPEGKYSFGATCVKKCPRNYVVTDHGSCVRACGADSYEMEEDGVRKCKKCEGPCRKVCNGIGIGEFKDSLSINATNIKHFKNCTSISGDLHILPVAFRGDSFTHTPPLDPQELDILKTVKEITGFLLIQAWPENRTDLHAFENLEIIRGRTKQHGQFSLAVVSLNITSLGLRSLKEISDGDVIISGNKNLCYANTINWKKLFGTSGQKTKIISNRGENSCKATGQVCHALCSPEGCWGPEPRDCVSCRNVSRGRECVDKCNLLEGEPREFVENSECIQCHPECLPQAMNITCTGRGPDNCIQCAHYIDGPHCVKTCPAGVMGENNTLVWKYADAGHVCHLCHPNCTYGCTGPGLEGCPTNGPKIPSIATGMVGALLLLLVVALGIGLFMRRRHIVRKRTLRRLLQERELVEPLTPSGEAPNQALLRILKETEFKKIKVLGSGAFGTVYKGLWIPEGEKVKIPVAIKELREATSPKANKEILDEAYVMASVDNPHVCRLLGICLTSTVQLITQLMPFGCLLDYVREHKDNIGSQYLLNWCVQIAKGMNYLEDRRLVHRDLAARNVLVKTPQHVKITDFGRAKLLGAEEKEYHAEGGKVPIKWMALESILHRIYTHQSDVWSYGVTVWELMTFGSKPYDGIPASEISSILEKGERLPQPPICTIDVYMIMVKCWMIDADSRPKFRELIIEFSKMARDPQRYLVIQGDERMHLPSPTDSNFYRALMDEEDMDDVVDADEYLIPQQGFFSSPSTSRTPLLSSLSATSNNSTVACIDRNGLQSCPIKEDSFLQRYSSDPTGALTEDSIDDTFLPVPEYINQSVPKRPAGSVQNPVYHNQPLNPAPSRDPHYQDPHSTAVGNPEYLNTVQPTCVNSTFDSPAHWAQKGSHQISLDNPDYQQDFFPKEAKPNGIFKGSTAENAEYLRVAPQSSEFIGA", "how_it_was_run": "as §1"}, "[5]": {"target": "T3, DRAK1(h) (Homo sapiens, UniProt Q9UEE5)", "T3 construct": "gene STK17A", "T3 sequence (Q9UEE5 1-414)": "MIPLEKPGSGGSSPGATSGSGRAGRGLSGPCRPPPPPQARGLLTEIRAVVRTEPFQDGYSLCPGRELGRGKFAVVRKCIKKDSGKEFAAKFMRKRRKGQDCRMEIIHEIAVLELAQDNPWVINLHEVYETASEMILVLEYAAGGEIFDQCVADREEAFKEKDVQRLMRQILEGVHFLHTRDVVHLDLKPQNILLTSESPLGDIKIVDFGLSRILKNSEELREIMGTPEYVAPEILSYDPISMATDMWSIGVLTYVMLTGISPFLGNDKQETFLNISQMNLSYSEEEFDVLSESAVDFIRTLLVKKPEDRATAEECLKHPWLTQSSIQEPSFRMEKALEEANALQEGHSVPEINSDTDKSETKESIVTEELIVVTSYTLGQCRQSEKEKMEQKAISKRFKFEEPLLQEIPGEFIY", "how_it_was_run": "as §1"}, "[6]": {"target": "mTOR/FKBP12(h) (Homo sapiens, UniProt P42345)", "how_it_was_run": "as §1"}, "[7]": {"conditions": "read-out: Residual activity (%) 5at"}, "[8]": {"conditions": "read-out: Residual activity (%) 5as"}, "[9]": {"conditions": "read-out: Residual activity (%) 5ay"}, "[10]": {"conditions": "read-out: Residual activity (%) Spautin-1 5aa"}}, "note": "Like-named read-outs stand apart in the source and are kept apart here."}
{"smiles": "Fc1ccc2ncnc(NCCc3ccc(Cl)cc3)c2c1", "note": "[5at, N-[2-(4-Chlorophenyl)Ethyl]-6-Fluoro-4-Quinazolinamine]", "values": [{"measurement": "remaining activity at 10 µM", "setting": "[1]; [7]", "value": 95, "unit": "%"}, {"measurement": "remaining activity at 10 µM", "setting": "[2]; [7]", "value": 81, "unit": "%"}, {"measurement": "remaining activity at 10 µM", "setting": "[3]; [7]", "value": 117, "unit": "%"}, {"measurement": "remaining activity at 10 µM", "setting": "[4]; [7]", "value": 60, "unit": "%"}, {"measurement": "remaining activity at 10 µM", "setting": "[5]; [7]", "value": 85, "unit": "%"}, {"measurement": "remaining activity at 10 µM", "setting": "[6]; [7]", "value": 94, "unit": "%"}]}
{"smiles": "Fc1ccc(CCNc2ncnc3ccc(F)cc23)cc1", "note": "[5as, 6-Fluoro-N-[2-(4-Fluorophenyl)Ethyl]-4-Quinazolinamine]", "values": [{"measurement": "remaining activity at 10 µM", "setting": "[1]; [8]", "value": 97, "unit": "%"}, {"measurement": "remaining activity at 10 µM", "setting": "[2]; [8]", "value": 79, "unit": "%"}, {"measurement": "remaining activity at 10 µM", "setting": "[3]; [8]", "value": 112, "unit": "%"}, {"measurement": "remaining activity at 10 µM", "setting": "[4]; [8]", "value": 37, "unit": "%"}, {"measurement": "remaining activity at 10 µM", "setting": "[5]; [8]", "value": 79, "unit": "%"}, {"measurement": "remaining activity at 10 µM", "setting": "[6]; [8]", "value": 89, "unit": "%"}]}
{"smiles": "COc1ccc2ncnc(Nc3cccc(F)c3)c2c1", "note": "[5ay, N-(3-Fluorophenyl)-6-Methoxy-4-Quinazolinamine]", "values": [{"measurement": "remaining activity at 10 µM", "setting": "[1]; [9]", "value": 100, "unit": "%"}, {"measurement": "remaining activity at 10 µM", "setting": "[2]; [9]", "value": 88, "unit": "%"}, {"measurement": "remaining activity at 10 µM", "setting": "[3]; [9]", "value": 110, "unit": "%"}, {"measurement": "remaining activity at 10 µM", "setting": "[4]; [9]", "value": 3, "unit": "%"}, {"measurement": "remaining activity at 10 µM", "setting": "[5]; [9]", "value": 57, "unit": "%"}, {"measurement": "remaining activity at 10 µM", "setting": "[6]; [9]", "value": 88, "unit": "%"}]}
{"smiles": "Fc1ccc(CNc2ncnc3ccc(F)cc23)cc1", "note": "[5aa, 6-Fluoro-N-(4-fluorobenzyl)-4-Quinazolinamine]", "values": [{"measurement": "remaining activity at 10 µM", "setting": "[1]; [10]", "value": 101, "unit": "%"}, {"measurement": "remaining activity at 10 µM", "setting": "[2]; [10]", "value": 101, "unit": "%"}, {"measurement": "remaining activity at 10 µM", "setting": "[3]; [10]", "value": 121, "unit": "%"}, {"measurement": "remaining activity at 10 µM", "setting": "[4]; [10]", "value": 23, "unit": "%"}, {"measurement": "remaining activity at 10 µM", "setting": "[5]; [10]", "value": 98, "unit": "%"}, {"measurement": "remaining activity at 10 µM", "setting": "[6]; [10]", "value": 100, "unit": "%"}]}
